Source: patent US8772498B2, “Alkylamine-substituted dicyanopyridine and amino acid ester prodrugs thereof” (Bayer Intellectual Property GmbH, priority 2009, dated 2014)
Where a name gives a salt, the structure may show the parent alone.

Experiments:
[1] = Stability as solid (90° C., 7 days); type: physicochemical; conditions: sealed vial, HPLC
Experimental: To assess the stability of the solids, 20 mg of the solids obtained in this manner are stored in a sealed Head-Space vial at 90° C. in a drying cabinet without vacuum for 7 days. HPLC is then used to measure whether there has been a degradation of the test substance.
HPLC Method for Measuring the Stability of the Solid of Example 63:
HPLC Method for Measuring the Stability of the Solid of Example 44: […]

[2] = tested on: spontaneously hypertensive rats; assay: Measurement of blood pressure and heart rate on awake rats (telemetry); type: in vivo; conditions: maximum reduction in heart rate, oral administration of 3 mg/kg, awake SH rats
Experimental: B-5. Measurement of Blood Pressure and Heart Rate
Awake spontaneously hypertensive rats (SH-Ratten) carrying an internal transmitter capable of measuring permanently both blood pressure and heart rate (telemetric monitoring of hemodynamic parameters) and sitting in a cage fitted with motion sensors are orally administered test substances in various dosages. Blood pressure and heart rate and changes thereof, and also the movements and the activity of the animals are then recorded and evaluated for 24 hours.

[3] = Stability in suspension (isopropanol, 7 days); type: physicochemical; conditions: room temperature, LC/MS
Experimental: c) Stability in Suspension and as Solid:
4.7-4.8 g of the test substance are suspended in 200 ml of isopropanol and stirred at room temperature for 7 days. The solid is filtered off and air-dried at room temperature for 3 days. LC/MS (Method 2) is then used to measure whether there has been a degradation of the test substance.

[4] = Oral pharmacokinetics in Wistar rats; type: in vivo; conditions: after oral administration
Experimental: f) Oral Pharmacokinetics in Wistar Rats:
(§1) On the day before administration of the substance, a catheter for obtaining blood is implanted in the jugular vein of the experimental animals (male Wistar rats, body weight 200-250 g) under Isofluran® anesthesia.
(§2) On the day of the experiment, a defined dose of the test substance is administered as solution into the stomach by gavage. Blood samples (8-12 time points) are taken through the catheter sequentially over the course of 24 h after administration of the substance. Plasma is obtained by centrifuging the samples in heparinized tubes. Acetonitrile is added to a defined plasma volume per time point to precipitate proteins. After centrifugation, test substance and, where appropriate, known cleavage products of the test substance in the supernatant are determined quantitatively using a suitable LC/MS-MS method.
The measured plasma concentrations are used to calculate pharmacokinetic parameters of the test substance and of the active ingredient compound (A) liberated therefrom, such as AUC, Cmax and T1/2 (half-life).

[5] = i.v. pharmacokinetics in Wistar rats; type: in vivo; conditions: after i.v. administration
Experimental: e) i.v. Pharmacokinetics in Wistar Rats:
as §1
as §2, with “tail vein using a Hamilton® glass syringe (bolus administration, duration of administration<10 s).” for “stomach by gavage.”
The measured plasma concentrations are used to calculate pharmacokinetic parameters of the test substance and of the active ingredient compound (A) liberated therefrom, such as AUC, Cmax, T1/2 (half-life) and CL (clearance).

[6] = Stability in buffer at various pH values; type: physicochemical
Experimental: b) Stability in Buffer at Various pH Values:
0.3 mg of the test substance is weighed into a 2 ml HPLC vial and 0.5 ml of acetonitrile or acetonitrile/DMSO (9:1) is added. The substance is dissolved by putting the sample vessel in an ultrasonic bath for about 10 seconds. Then 0.5 ml of the respective (buffer) solution is added, and the sample is again treated in the ultrasonic bath.
(Buffer) solutions employed:
pH 4: 1 liter of Millipore water is adjusted to pH 4.0 with 1 N hydrochloric acid;
pH 7.4: 90.0 g of sodium chloride, 13.61 g of potassium dihydrogen phosphate and 83.35 g of 1 N sodium hydroxide solution are made up to 1 liter with water; this solution is then further diluted 1:10 with Millipore water.
5 μl portions of the test solution are analyzed by HPLC for their content of unchanged test substance, and of active substance (A) produced, every hour over a period of 24 hours at 37° C. The percentage areas of the appropriate peaks are used for quantification.
HPLC method for Examples 41 and 44:
(§3) Agilent 1100 with DAD (G1315B), binary pump (G1312A), autosampler (G1329A), column oven (G1316A), thermostat (G1330B); column: Kromasil 100 C18, 250 mm×4 mm, 5 μm; column temperature: 30° C.; mobile phase A: water+5 ml of perchloric acid/liter, eluent B: acetonitrile; gradient: 0 min 90% A→5.0 min 40% A→18.0 min 10% A→19.0 min 10% A→21.0 min 90% A→23.0 min 90% A; flow rate: 2.0 ml/min; UV detection: 288 nm.
HPLC Method for Examples 50 and 59:
as §3, with “125” for “250”, “60% A→7.0 min 60% A→10.0” for “40% A→18.0”, “A→12.0” for “A→19.0”, “A→14.0” for “A→21.0”, “A→16.0” for “A→23.0”, “294” for “288”
HPLC Method for Example 54:
as §3, with “(G1314A),” for “(G1315B),”, “(G1330A);” for “(G1330B);”
The ratios of the peak areas (F) at the respective time points in relation to the peak areas at the starting time are shown in Table 2 for representative exemplary embodiments: […]

[7] = Determination of the solubility in 5% strength aqueous dextrose solution; type: physicochemical; conditions: saline or isotonic, thermodynamic from solid, room temperature, 24 h
Experimental: B-8. Determination of Solubility, Stability and Liberation Behavior a) Determination of the Solubility:
The test substance is suspended in 5% strength aqueous dextrose solution. This suspension is shaken at room temperature for 24 h. After ultracentrifugation at 224 000 g for 30 min, the supernatant is diluted with DMSO and analyzed by HPLC. A two-point calibration plot of the test compound in DMSO is used for quantification.
Agilent 1100 with DAD (G1315A), quat. pump (G1311A), autosampler CTC HTS PAL, degasser (G1322A) and column thermostat (G1316A); column: Phenomenex Gemini C18, 5 μm, 50 mm×2 mm; temperature: 40° C.; eluent A: water/phosphoric acid pH 2; eluent B: acetonitrile; flow rate: 0.7 ml/min; gradient: 0-0.5 min 85% A, 15% B; ramp: 0.5-3 min 10% A, 90% B; 3-3.5 min 10% A, 90% B; ramp: 3.5-4 min 85% A, 15% B; 4-5 min 85% A, 15% B.
Agilent 1100 with DAD (G1315A), quat. pump (G1311A), autosampler CTC HTS PAL, degasser (G1322A) and column thermostat (G1316A); column: VDSoptilab Kromasil 100 C18, 3.5 μm, 60 mm×2.1 mm; temperature: 30° C.; eluent A: water+5 ml perchloric acid/I; eluent B: acetonitrile; flow rate: 0.75 ml/min; gradient: 0-0.5 min 98% A, 2% B; ramp: 0.5-4.5 min 10% A, 90% B; 4.5-6 min 10% A, 90% B; ramp: 6.5-6.7 min 98% A, 2% B; 6.7-7.5 min 98% A, 2% B.

Row | Structure (SMILES) | Degradation of the solid [1] | Heart rate reduction [2] | Degradation of the test substance in suspension [3] | Detectability of the administered substance in plasma [4] | Detectability of the administered substance in plasma [5] | % test substance after 4 h (F(t = 4 h) × 100/F(t = 0 h)) ([6]; pH 4, 37° C.) | % test substance after 24 h (F(t = 24 h) × 100/F(t = 0 h)) ([6]; pH 4, 37° C.) | % test substance after 4 h (F(t = 4 h) × 100/F(t = 0 h)) ([6]; pH 7.4, 37° C.) | % test substance after 24 h (F(t = 24 h) × 100/F(t = 0 h)) ([6]; pH 7.4, 37° C.) | solubility at 24 h [7]
1 | CC[C@H](C)[C@H](N)C(=O)N[C@@H](C)C(=O)OCCOc1ccc(-c2c(C#N)c(SCc3csc(-c4ccc(Cl)cc4)n3)nc(N3CCCC3)c2C#N)cc1 [Example 63, 2-{4-(2-({(2-(4-Chlorophenyl)-1,3-thiazol-4-yl)methyl}sulfanyl)-3,5-dicyano-6-(pyrrolidin-1-yl)pyridin-4-yl)phenoxy}ethyl L-isoleucyl-L-alaninate hydrochloride] | no degradation | −20% | no degradation | no longer detectable in plasma even at the first measurement point | no longer detectable in plasma even at the first measurement point | 98% | 98% | 93% | 67% | 
2 | C[C@H](N)C(=O)N[C@@H](C)C(=O)OCCOc1ccc(-c2c(C#N)c(SCc3csc(-c4ccc(Cl)cc4)n3)nc(N3CCCC3)c2C#N)cc1 [Example 44, 2-{4-(2-({(2-(4-Chlorophenyl)-1,3-thiazol-4-yl)methyl}sulfanyl)-3,5-dicyano-6-(pyrrolidin-1-yl)pyridin-4-yl)phenoxy}ethyl L-alanyl-L-alaninate hydrochloride] | no degradation | −20% | no degradation | no longer detectable in plasma even at the first measurement point | no longer detectable in plasma even at the first measurement point | 99% | 99% | 78% | 26% | 410 µg/mL
3 | C[C@H](NC(=O)[C@@H](N)CCCCN)C(=O)OCCOc1ccc(-c2c(C#N)c(SCc3csc(-c4ccc(Cl)cc4)n3)nc(N3CCCC3)c2C#N)cc1 [Example 41, 2-{4-(2-({(2-(4-Chlorophenyl)-1,3-thiazol-4-ylmethyl}sulfanyl)-3,5-dicyano-6-(pyrrolidin-1-yl)pyridin-4-yl)phenoxy}ethyl L-lysyl-L-alaninatedihydrochloride] |  | −5% |  | no longer detectable in plasma even at the first measurement point | no longer detectable in plasma even at the first measurement point | 97% | 99% | 37% | 0% | 650 µg/mL
